Data set [1] relates to mammary gland carcinoma (MCF-7). The experiment in a line: In vitro ED50 against tumor cells, MCF-7. It counts as cell-based. Conditions: Homo sapiens. The source says:
(§1) The procedure of Geran, R. T., et al. Cancer Chemother. Rep. (Part 3) 3,1 (1972) (see K. H. Lee et al., Planta Medica, 308, 1988), was employed to determine the in vitro ED50 dose for NPI-007 and NPI-008 against human tumor cells, including the lymphoid leukemia (L 1210), the lung carcinoma (A-549), the ileocecal carcinoma (HCT-8), and the mammary gland carcinoma (MCF-7) cell lines. These cell lines were obtained from the American Type Culture Collection (Rockville, Md.).

Data set [2] concerns lymphoid leukemia (L 1210). The experiment in a line: In vitro ED50 against tumor cells, L 1210. It counts as cell-based.
Excerpt: as §1

Data set [3] deals with Ehrlich ascite tumor (ECA). The experiment in a line: In vivo Tumor Growth Inhibition Assay, ECA. Details: species or system Swiss albino female mice. Particulars: 0.1 mg/0.05 ml into thigh muscle every other day, 5 treatments; for Inhibition %: wet tumor weight vs control; for Wet Weight of Tumor (treatment group): ± SE (n=5), control 0.4162 ± 0.0767. The source says:
(§2) Swiss albino female mice of 10-12 weeks old, weighing 17-20 grams were separated into two groups.
(§3) Sarcoma-180, Ehrlich ascite tumor (ECA) and U14 cell lines were separately maintained and propagated in MEM-F12 medium supplemented with 10% FCS. The cells were detached to suspension by use of 0.25% trypsin solution. After suspension, the cells were washed once with PBS and resuspended in sample buffered solution. The cells were counted by a coulter particle counting apparatus. Cells sized from 10-100 μ were obtained for calculation of dosage.
(§4) Animals were restrained manually and 0.2 ml cell suspension containing 10^7 to 2×10^7 cells/ml for S180, U14 or ECA were injected subcutaneously in left thorax ventrally adjacent to axillae. The selected A-nor-5α-androstane (5 mg) was dissolved in 2.5 ml phosphate buffered saline (pH 7.4) solution. A solution (0.1 mg/0.05 ml) was injected into thigh muscle every other day for 5 consecutive treatments. The injection site was alternated between right and left legs. […] Control animals received injection of the same amount of PBS in a manner similar to the treated groups.
(§5) At 2 days after the last (5th) treatment, animals were sacrificed by suffocation with carbon dioxide gas. The skin over the tumor site was reflected and the tumor mass dissected free from connective tissue and weighted with an electric balance.

In the next data set the test system is M14. The experiment in a line: In vivo Tumor Growth Inhibition Assay, M14. Also on record: species or system Swiss albino female mice. Conditions: 0.1 mg/0.05 ml into thigh muscle every other day, 5 treatments; for Inhibition %: wet tumor weight vs control; for Wet Weight of Tumor (treatment group): ± SE (n=5), control 1.1413 ± 0.1225.
For another data set, the system named is Lewis Lung Carcinoma. The experiment in a line: In vivo Antitumor Activity Against Lewis Lung Carcinoma. Details: species or system Mice (DBF1). Particulars: dosage mg × 7 Days: NPI-008 0.1, Cyclophosphamide 0.4; for Tumor Weight, 3 Days After Treatment: 10 mice, control 310 ± 51.5; for Tumor Weight, 8 Days After Treatment: 11 mice, control 772 ± 360.
For data set [4], the system named is ileocecal carcinoma (HCT-8). The experiment in a line: In vitro ED50 against tumor cells, HCT-8. It counts as cell-based. Conditions: Homo sapiens.
Excerpt: as §1

The next data set deals with Sarcoma-180. The experiment in a line: In vivo Tumor Growth Inhibition Assay, S180. Also on record: species or system Swiss albino female mice. Conditions: 0.1 mg/0.05 ml into thigh muscle every other day, 5 treatments; for Inhibition %: wet tumor weight vs control; for Wet Weight of Tumor (treatment group): ± SE (n=5), control 2.0939 ± 0.3835.
Excerpt: as §2, §3, §4, §5

The next data set deals with lung carcinoma (A-549). Briefly: In vitro ED50 against tumor cells, A-549. Particulars: Homo sapiens. It counts as cell-based.
Excerpt: as §1

For data set [5], the system named is amitotic cells of cultured hamster's ascites tumor. Conditions: Pincus and Gordon (1965); cited from earlier work.
For data set [6] the following is noted: cited from earlier work.
The conditions of data set [7]: experimental animals (Ku, C.P. et al., 1975); cited from earlier work.
For data set [8] the following is noted: experimental and clinical evidence; cited from earlier work.

This is an account of results in patent US5001120A, “Use of A-Nor-steroids as malignant cells growth inhibitors” (Natural Pharmacia International, Inc., priority 1989, dated 1991).

In brackets after ≈: the same amount, converted by molar mass. Counter-ions that a name gives are not always drawn. Like-named read-outs stand apart in the source and are kept apart here. Where only a bound is given, the exact number is not on record here.

As to `C#C[C@@]1(OC(=O)CCC(=O)O)C[C@@H]2CC[C@@H]3[C@H](CC[C@@]4(C)[C@H]3CC[C@]4(C#C)OC(=O)CCC(=O)O)[C@@]2(C)C1` [NPI-008, 2α,17α-diethynyl-A-nor-5α-androstane-2β,17β-diol disuccinate], the IC50 was 7.6 µg/mL in data set [1] (MCF7, MCF-7, N = 4, read-out: ED50 (the source's name)); 5.87 µg/mL in data set [2] (L1210, L 1210, N = 4, read-out: ED50 (the source's name)); 0.41 µg/mL in [4] (HCT-8, N = 4, read-out: ED50 (the source's name)); greater than 10 µg/mL in the data set on lung carcinoma (A-549) (A549, A-549, N = 4, read-out: ED50 (the source's name)). For the same molecule, the figures for the Inhibition % (in data set [3]; with M14; with Sarcoma-180) were 90.0%, 75.6% and 87.0%, respectively. In addition, the “Wet Weight of Tumor (treatment group)” value in data set [3] is reported as 0.0416 ± 0.0120 g; in the data set on M14, 0.2785 ± 0.0308 g; with Sarcoma-180, 0.2722 ± 0.0872 g. The “Tumor Weight, 3 Days After Treatment” value in the data set with Lewis Lung Carcinoma turned out to be 168 ± 53 mg. The “Tumor Weight, 8 Days After Treatment” value in the data set with Lewis Lung Carcinoma came to 175 ± 153 mg.
Consider 2α,17α-diethyl,2β-17β-diol, for which, in data set [5], the “antiestrogenic activity (inhibition of estrogen-induced cell division)” value is listed as “possess antiestrogenic activity”.
As to `C#C[C@]1(O)CC[C@H]2[C@@H]3CC[C@H]4C[C@H](C(C)=O)C[C@]4(C)[C@H]3CC[C@@]21C` [2α-acetyl-17α-ethynyl-17β-ol], in data set [5], the “antiestrogenic activity (inhibition of estrogen-induced cell division)” value is given as “possess antiestrogenic activity”.
As to `C#C[C@@]1(OC(=O)CC)C[C@@H]2CC[C@@H]3[C@H](CC[C@@]4(C)[C@H]3CC[C@]4(C#C)OC(=O)CC)[C@@]2(C)C1` [NPI-007, 2α,17α-diethynyl-A-nor-5α-androstane-2β,17β-diol dipropionate], the IC50 is 5.9 µg/mL (≈ 13.5 µM) in [1] (MCF7, read-out: ED50); 4.5 µg/mL (≈ 10.3 µM) in data set [2] (L1210, read-out: ED50); 0.57 µg/mL (≈ 1.3 µM) in data set [4] (HCT-8, read-out: ED50); greater than 10 µg/mL in the data set with lung carcinoma (A-549) (A549, read-out: ED50). In [6] (clinical studies (Ku, C.P. et al., 1975)), the hyperestrogenic side effect result is listed as “hyperestrogenic side effect has been noted”. Besides, the anti-implantation activity result is on record as “significant anti-implantation activity” in data set [6] (clinical trials (Hu, C. et al., 1982)) and “significant anti-implantation activity” in data set [7]. The results for the Inhibition % (in [3]; in the data set on M14; with Sarcoma-180) were 52.9%, 43.4% and 74.1%, respectively. The “Wet Weight of Tumor (treatment group)” value in [3] stood at 0.1957 ± 0.0165 g; in the data set on M14, 0.6464 ± 0.0536 g; in the data set with Sarcoma-180, 0.5428 ± 0.1059 g. The anti-fertility activity entry in data set [8] is recorded as “significant anti-fertility activity”.
On to `C#C[C@@]1(O)C[C@@H]2CC[C@@H]3[C@H](CC[C@@]4(C)[C@H]3CC[C@]4(C)O)[C@@]2(C)C1` [2α-ethynyl-2β, 17β-diol-17α-methyl], for which, in data set [5], the “antiestrogenic activity (inhibition of estrogen-induced cell division)” value is reported as “possess antiestrogenic activity”.
With `C#C[C@@]1(O)C[C@@H]2CC[C@@H]3[C@H](CC[C@]4(C)[C@@H](O)CC[C@@H]34)[C@@]2(C)C1` [2α-ethynyl-2β,17β-diol], in data set [5], the “antiestrogenic activity (inhibition of estrogen-induced cell division)” value is “possess antiestrogenic activity”.
In the case of `CC[C@]1(O)C[C@@H]2CN(CCc3c([nH]c4ccccc34)[C@@](C(=O)OC)(c3cc4c(cc3OC)N(C)[C@H]3[C@@](O)(C(=O)OC)[C@H](OC(C)=O)[C@]5(CC)C=CCN6CC[C@]43[C@@H]65)C2)C1` [Vinblastine sulfate, reference compound], the IC50 came out at 0.005 µg/mL in data set [4] (HCT-8, read-out: ED50) and 0.003 µg/mL with lung carcinoma (A-549) (A549, read-out: ED50).
Regarding `COc1cc([C@@H]2c3cc4c(cc3[C@@H](O[C@@H]3O[C@@H]5CO[C@@H](C)O[C@H]5[C@H](O)[C@H]3O)[C@H]3COC(=O)[C@H]23)OCO4)cc(OC)c1O` [etoposide, reference compound], the IC50 in data set [2] (L1210, read-out: ED50) came to 1.58 µg/mL (≈ 2.68 µM).
For `O=P1(N(CCCl)CCCl)NCCCO1` (stereo not shown) [Cyclophosphamide, reference compound], in the data set with Lewis Lung Carcinoma, the “Tumor Weight, 3 Days After Treatment” value is given as 130 ± 31 mg and the “Tumor Weight, 8 Days After Treatment” value amounted to 500 ± 275 mg.
For the molecule `COc1cccc2c1C(=O)c1c(O)c3c(c(O)c1C2=O)C[C@@](O)(C(=O)CO)C[C@@H]3O[C@H]1C[C@H](N)[C@H](O)[C@H](C)O1` [Adriamycin HCl, reference compound], the IC50 in data set [4] (HCT-8, read-out: ED50) was determined as 0.3 µg/mL; in the data set on lung carcinoma (A-549) (A549, read-out: ED50), 0.16 µg/mL.
